Patent US12528826B2, “[1,4]oxazepino[2,3-c]quinolinone derivatives as BCL6 inhibitors” (Cancer Research Technology Limited, priority 2019, dated 2026)

Molecular target: T1, Trx-6×His-BCL6 (human BCL6 BTB domain covering amino-acid sequence 5-129) (Homo sapiens, UniProt P41182)
T1 construct: made in house
Experiment: HTRF assay (BCL6 / BCOR peptide)
Format: binding
Settings: 1 nM Trx-6×His-BCL6, 300 nM BCOR-AF633 peptide, 2 hours incubation at room temperature
Method: After 2 hours incubation at room temperature the plate was read on a Pherastar FSX (BMG Labtech) plate reader equipped with 337 nm laser excitation filter, a first emission filter at 620 nm and a second emission filter at 665 nm. The % inhibition at each concentration was calculated by normalising FRET ratio to the appropriate high (DMSO with all reagents) and low (DMSO without BCL6) controls.

| Molecule | HTRF avg pIC50 |
| --- | --- |
| (S)-10-((5-chloro-2-((3R,4S)-3-(hydroxymethyl)-4-methylpyrrolidin-1-yl)pyrimidin-4-yl)amino)-2-cyclopropyl-3,3-difluoro-7-methyl-1,2,3,4-tetrahydro-[1,4]oxazepino[2,3-c]quinolin-6(7H)-one:(S)-10-((5-chloro-2-((3S,4R)-3-(hydroxymethyl)-4-methylpyrrolidin-1-yl)pyrimidin-4-yl)amino)-2-cyclopropyl-3,3-difluoro-7-methyl-1,2,3,4-tetrahydro-[1,4]oxazepino[2,3-c]quinolin-6(7H)-one (1:1) [Example 11j] | 8.22 |
| (S)-10-((5-chloro-2-((3R,5R)-3-fluoro-5-hydroxypiperidin-1-yl)pyrimidin-4-yl)amino)-2-cyclopropyl-3,3-difluoro-7-methyl-1,2,3,4-tetrahydro-[1,4]oxazepino[2,3-c]quinolin-6(7H)-one:(S)-10-((5-chloro-2-((3S,5S)-3-fluoro-5-hydroxypiperidin-1-yl)pyrimidin-4-yl)amino)-2-cyclopropyl-3,3-difluoro-7-methyl-1,2,3,4-tetrahydro-[1,4]oxazepino[2,3-c]quinolin-6(7H)-one(1:1) [Example 11g] | 8.28 |
| (S)-10-((5-chloro-2-((R)-3,3-difluoro-5-hydroxypiperidin-1-yl)pyrimidin-4-yl)amino)-2-cyclopropyl-3,3-difluoro-7-methyl-1,2,3,4-tetrahydro-[1,4]oxazepino[2,3-c]quinolin-6(7H)-one:(S)-10-((5-chloro-2-((S)-3,3-difluoro-5-hydroxypiperidin-1-yl)pyrimidin-4-yl)amino)-2-cyclopropyl-3,3-difluoro-7-methyl-1,2,3,4-tetrahydro-[1,4]oxazepino[2,3-c]quinolin-6(7H)-one (1:1) [Example 12e] | 8.32 |
| (S)-10-((5-chloro-2-((R)-4,4-difluoro-3-methylpiperidin-1-yl)pyrimidin-4-yl)amino)-2-cyclopropyl-3,3-difluoro-7-methyl-1,2,3,4-tetrahydro-[1,4]oxazepino[2,3-c]quinolin-6(7H)-one or (S)-10-((5-chloro-2-((S)-4,4-difluoro-3-methylpiperidin-1-yl)pyrimidin-4-yl)amino)-2-cyclopropyl-3,3-difluoro-7-methyl-1,2,3,4-tetrahydro-[1,4]oxazepino[2,3-c]quinolin-6(7H)-one [Example 14b] | 7.33 |

Same assay, conditions: 1 nM Trx-6×His-BCL6, 300 nM BCOR-AF633 peptide, 2 hours incubation at room temperature; read-out: HTRF avg pIC50 (converted)

| Molecule | IC50 [nM] |
| --- | --- |
| Cn1c(=O)c2c(c3cc(Nc4nc(N5CCC(F)CC5)ncc4Cl)ccc31)N[C@@H](C1CC1)C(F)(F)CO2 [Example 12x42, (S)-10-((5-chloro-2-(4-fluoropiperidin-1-yl)pyrimidin-4-yl)amino)-2-cyclopropyl-3,3-difluoro-7-methyl-1,2,3,4-tetrahydro-[1,4]oxazepino[2,3-c]quinolin-6(7H)-one] | 6.17 |
| Cn1c(=O)c2c(c3cc(Nc4nc(N5CCC[C@H]5CO)ncc4Cl)ccc31)N[C@@H](C1CC1)C(F)(F)CO2 [Example 12x44, (S)-10-((5-chloro-2-((S)-2-(hydroxymethyl)pyrrolidin-1-yl)pyrimidin-4-yl)amino)-2-cyclopropyl-3,3-difluoro-7-methyl-1,2,3,4-tetrahydro-[1,4]oxazepino[2,3-c]quinolin-6(7H)-one] | 5.01 |
| COC[C@@H]1CCCN1c1ncc(Cl)c(Nc2ccc3c(c2)c2c(c(=O)n3C)OCC(F)(F)[C@H](C3CC3)N2)n1 [Example 12x45a, (S)-10-((5-chloro-2-((S)-2-(methoxymethyl)pyrrolidin-1-yl)pyrimidin-4-yl)amino)-2-cyclopropyl-3,3-difluoro-7-methyl-1,2,3,4-tetrahydro-[1,4]oxazepino[2,3-c]quinolin-6(7H)-one] | 11.2 |
| COC[C@H]1CCCN1c1ncc(Cl)c(Nc2ccc3c(c2)c2c(c(=O)n3C)OCC(F)(F)[C@H](C3CC3)N2)n1 [Example 12x45b, (S)-10-((5-chloro-2-((R)-2-(methoxymethyl)pyrrolidin-1-yl)pyrimidin-4-yl)amino)-2-cyclopropyl-3,3-difluoro-7-methyl-1,2,3,4-tetrahydro-[1,4]oxazepino[2,3-c]quinolin-6(7H)-one] | 4.79 |
| Cn1c(=O)c2c(c3cc(Nc4nc(N5CC(F)(F)C[C@H]5CO)ncc4Cl)ccc31)N[C@@H](C1CC1)C(F)(F)CO2 [Example 12x47, (S)-10-((5-chloro-2-((S)-4,4-difluoro-2-(hydroxymethyl)pyrrolidin-1-yl)pyrimidin-4-yl)amino)-2-cyclopropyl-3,3-difluoro-7-methyl-1,2,3,4-tetrahydro-[1,4]oxazepino[2,3-c]quinolin-6(7H)-one] | 8.32 |
| Cn1c(=O)c2c(c3cc(Nc4nc(N5C[C@@H](F)C[C@H]5CO)ncc4Cl)ccc31)N[C@@H](C1CC1)C(F)(F)CO2 [Example 12x48a, (S)-10-((5-chloro-2-((2S,4S)-4-fluoro-2-(hydroxymethyl)pyrrolidin-1-yl)pyrimidin-4-yl)amino)-2-cyclopropyl-3,3-difluoro-7-methyl-1,2,3,4-tetrahydro-[1,4]oxazepino[2,3-c]quinolin-6(7H)-one] | 4.27 |
| Cn1c(=O)c2c(c3cc(Nc4nc(N5C[C@H](F)C[C@H]5CO)ncc4Cl)ccc31)N[C@@H](C1CC1)C(F)(F)CO2 [Example 12x48b, (S)-10-((5-chloro-2-((2S,4R)-4-fluoro-2-(hydroxymethyl)pyrrolidin-1-yl)pyrimidin-4-yl)amino)-2-cyclopropyl-3,3-difluoro-7-methyl-1,2,3,4-tetrahydro-[1,4]oxazepino[2,3-c]quinolin-6(7H)-one] | 18.6 |
| CC1CCN(c2ncc(Cl)c(Nc3ccc4c(c3)c3c(c(=O)n4C)OCC(F)(F)[C@H](C4CC4)N3)n2)C1CO (stereo partly drawn) [Example 12x49, (2S)-10-((5-chloro-2-(2-(hydroxymethyl)-3-methylpyrrolidin-1-yl)pyrimidin-4-yl)amino)-2-cyclopropyl-3,3-difluoro-7-methyl-1,2,3,4-tetrahydro-[1,4]oxazepino[2,3-c]quinolin-6(7H)-one] | 6.31 |
| C[C@H]1C[C@@H](O)CN(c2cc(Nc3ccc4c(c3)c3c(c(=O)n4C)OCC(F)(F)[C@H](C4CC4)N3)c(Cl)cn2)C1 [Example 13a, (S)-10-((5-chloro-2-((3R,5S)-3-hydroxy-5-methylpiperidin-1-yl)pyridin-4-yl)amino)-2-cyclopropyl-3,3-difluoro-7-methyl-1,2,3,4-tetrahydro-[1,4]oxazepino[2,3-c]quinolin-6(7H)-one] | 6.76 |
| Cn1c(=O)c2c(c3cc(Nc4cc(N5CCC(F)(F)CC5)ncc4Cl)ccc31)N[C@@H](C1CC1)C(F)(F)CO2 [Example 13b] | 30.9 |
| CN(C)c1cc(Nc2ccc3c(c2)c2c(c(=O)n3C)OCC(F)(F)[C@H](C3CC3)N2)c(Cl)cn1 [Example 13c12, (S)-2-cyclopropyl-10-((2-(dimethylamino)-5-chloropyridin-4-yl)amino)-3,3-difluoro-7-methyl-1,2,3,4-tetrahydro-[1,4]oxazepino[2,3-c]quinolin-6(7H)-one] | 19.5 |
| Cn1c(=O)c2c(c3cc(Nc4cc(N5CCC(F)(F)CC5)ncc4F)ccc31)N[C@@H](C1CC1)C(F)(F)CO2 [Example 13f04, (S)-2-cyclopropyl-10-((2-(4,4-difluoropiperidin-1-yl)-5-fluoropyridin-4-yl)amino)-3,3-difluoro-7-methyl-1,2,3,4-tetrahydro-[1,4]oxazepino[2,3-c]quinolin-6(7H)-one] | 58.9 |
| C[C@H]1C[C@@H](O)CN(c2cc(Nc3ccc4c(c3)c3c(c(=O)n4C)OCC(F)(F)[C@H](C4CC4)N3)c(F)cn2)C1 [Example 13f05, (S)-2-cyclopropyl-3,3-difluoro-10-((5-fluoro-2-((3R,5S)-3-hydroxy-5-methylpiperidin-1-yl)pyridin-4-yl)amino)-7-methyl-1,2,3,4-tetrahydro-[1,4]oxazepino[2,3-c]quinolin-6(7H)-one] | 6.61 |
| CC1CN(c2ncc(F)c(Nc3ccc4c(c3)c3c(c(=O)n4C)OCC(F)(F)[C@H](C4CC4)N3)n2)CC(C)C1(F)F (stereo partly drawn) [Example 13p01, (2S)-2-cyclopropyl-10-((2-(4,4-difluoro-3,5-dimethylpiperidin-1-yl)-5-fluoropyrimidin-4-yl)amino)-3,3-difluoro-7-methyl-1,2,3,4-tetrahydro-[1,4]oxazepino[2,3-c]quinolin-6(7H)-one] | 85.1 |
| Cn1c(=O)c2c(c3cc(Nc4nc(N5CCOCC5)ncc4F)ccc31)N[C@@H](C1CC1)C(F)(F)CO2 [Example 13p06, (S)-2-cyclopropyl-3,3-difluoro-10-((5-fluoro-2-morpholinopyrimidin-4-yl)amino)-7-methyl-1,2,3,4-tetrahydro-[1,4]oxazepino[2,3-c]quinolin-6(7H)-one] | 11.7 |
| C[C@H]1CN(c2ncc(F)c(Nc3ccc4c(c3)c3c(c(=O)n4C)OCC(F)(F)[C@H](C4CC4)N3)n2)CCO1 [Example 13p08, (S)-2-cyclopropyl-3,3-difluoro-10-((5-fluoro-2-((S)-2-methylmorpholino)pyrimidin-4-yl)amino)-7-methyl-1,2,3,4-tetrahydro-[1,4]oxazepino[2,3-c]quinolin-6(7H)-one] | 10.5 |
| Cn1c(=O)c2c(c3cc(Nc4nc(N5C[C@H]6CC[C@@H](C5)O6)ncc4F)ccc31)N[C@@H](C1CC1)C(F)(F)CO2 [Example 13p11, (S)-10-((2-((1R,5S)-8-oxa-3-azabicyclo[3.2.1]octan-3-yl)-5-fluoropyrimidin-4-yl)amino)-2-cyclopropyl-3,3-difluoro-7-methyl-1,2,3,4-tetrahydro-[1,4]oxazepino[2,3-c]quinolin-6(7H)-one] | 7.24 |
| CN(C)c1ncc(F)c(Nc2ccc3c(c2)c2c(c(=O)n3C)OCC(F)(F)[C@H](C3CC3)N2)n1 [Example 13p12, (S)-2-cyclopropyl-10-((2-(dimethylamino)-5-fluoropyrimidin-4-yl)amino)-3,3-difluoro-7-methyl-1,2,3,4-tetrahydro-[1,4]oxazepino[2,3-c]quinolin-6(7H)-one] | 19.1 |
